Patent publication US20260070917A1, “CYCLIN DEPENDENT KINASE DEGRADERS AND METHODS OF USE THEREOF” (Differentiated Therapeutics Inc, priority 2023, published 2026)
Read-outs that look alike come from different tables or passages of the source.

Experiments:
Type in all cases: cell-based
[1] = molecular target: T1, CDK2 (Homo sapiens, UniProt P24941); experiment: HiBit Assay Protocol for CDK2 (HIBIT protein quantification, degradation); details: HEK293-CDK2-Hibit cells, compound treatment for 6 hours; for DC50: ABS DC50
T1 construct: host or cells: HEK293-CDK2-Hibit
Outline: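 DC50 comes from a fitted curve of remaining CDK2-HiBiT luminescence, referenced to DMSO-treated cells and medium-only wells. HEK293-CDK2-HiBiT cells, plated the previous night, received compounds in a 10-point, 3-fold series for 6 h before lysis with LgBiT-containing Nano-Glo HiBiT reagent.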

[2] = molecular target: T2, CCNE1 (Homo sapiens, UniProt P24864); experiment: HiBit Assay Protocol for CCNE1 (HIBIT protein quantification, degradation); details: HEK293-CCNE1-Hibit cells, compound treatment for 6 hours
T2 construct: host or cells: HEK293-CCNE1-Hibit
T2 sequence (P24864 whole entry): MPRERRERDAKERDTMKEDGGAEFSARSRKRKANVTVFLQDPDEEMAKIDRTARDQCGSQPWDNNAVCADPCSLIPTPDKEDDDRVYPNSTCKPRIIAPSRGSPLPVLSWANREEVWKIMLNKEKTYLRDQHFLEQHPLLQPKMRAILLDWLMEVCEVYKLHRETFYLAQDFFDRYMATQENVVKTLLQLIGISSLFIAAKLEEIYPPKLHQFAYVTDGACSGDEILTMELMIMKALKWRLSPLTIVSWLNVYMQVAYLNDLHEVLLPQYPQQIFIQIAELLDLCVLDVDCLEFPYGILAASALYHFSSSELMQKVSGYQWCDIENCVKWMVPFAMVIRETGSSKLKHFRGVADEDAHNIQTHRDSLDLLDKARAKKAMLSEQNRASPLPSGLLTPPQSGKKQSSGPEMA
Outline: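 Degradation readout: lytic Nano-Glo HiBiT luminescence after 6 h exposure of HEK293-CCNE1-HiBiT cells to 10-point, 3-fold serial dilutions. Signal was scaled between medium-only and DMSO-treated wells, and DC50 came from curve fits.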

[3] = molecular target: T3, CDK9 (Homo sapiens, UniProt P50750); experiment: HiBit Assay Protocol for CDK9 (HIBIT protein quantification, degradation); details: HEK293-CDK9-Hibit cells, compound treatment for 6 hours; for Dmax: read-out: CDK9 HIBIT Protein Quantification Maximum
T3 construct: host or cells: HEK293-CDK9-Hibit
T3 sequence (P50750 whole entry): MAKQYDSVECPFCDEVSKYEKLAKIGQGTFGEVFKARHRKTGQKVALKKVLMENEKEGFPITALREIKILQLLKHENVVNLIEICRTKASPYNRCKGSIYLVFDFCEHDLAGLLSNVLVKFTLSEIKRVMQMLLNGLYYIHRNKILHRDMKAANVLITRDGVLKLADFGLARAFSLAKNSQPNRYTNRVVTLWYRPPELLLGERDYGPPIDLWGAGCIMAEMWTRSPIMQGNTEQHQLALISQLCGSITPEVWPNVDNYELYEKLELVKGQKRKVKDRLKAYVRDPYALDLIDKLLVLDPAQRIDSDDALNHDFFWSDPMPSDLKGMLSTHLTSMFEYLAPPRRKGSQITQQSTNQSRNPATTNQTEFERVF
Outline: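 Degradation read-out: luminescence after lytic HiBiT/LgBiT detection in HEK293-CDK9-HiBiT cells exposed 6 h to 10-point, 3-fold compound dilutions. Signal scaled between 0.1% DMSO-treated cells and medium alone; DC50 fitted from the curve.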

Structure (SMILES)	CDK2 HIBIT Protein Quantification Maximum [1] [%]	CCNE1 HIBIT Protein Quantification Maximum [2] [%]	Dmax ([3]; 6 h) [%]	DC50 ([3]; ABS DC50) [µM]	DC50 [1] [µM]	Dmax [3] [%]
CC1CCCC1N1C(=O)C2(CC2)c2cnc(NC3CCN(S(=O)(=O)N4CC5(CCN(C(=O)CCc6cccc7c6n(C)c(=O)n7C6CCC(=O)NC6=O)CC5)C4)CC3)nc21 (stereo not shown) [Compound 20]	46	29	71	0.0863		
CC1CCCC1N1C(=O)C2(CC2)c2cnc(NC3CCN(S(=O)(=O)N4CCCN(C(=O)CCCCCc5cccc6c5n(C)c(=O)n6C5CCC(=O)NC5=O)CC4)CC3)nc21 (stereo not shown) [Compound 43]	60	62	32		0.016	
CC1CCCC1N1C(=O)C2(CC2)c2cnc(NC3CCN(S(=O)(=O)N4CC5(CCCN(C6CCCN(c7cccc8c7n(C)c(=O)n8C7CCC(=O)NC7=O)C6)C5)C4)CC3)nc21 (stereo not shown) [Compound 135, 3-{3-Methyl-4-[3-(2-{4-[7′-(2-methylcyclopentyl)-6′-oxospiro[cyclopropane-1,5′-pyrrolo[2,3-d]pyrimidin]-2′-ylamino]piperidin-1-ylsulfonyl}-2,6-diazaspiro[3.5]nonan-6-yl)piperidin-1-yl]-2-oxo-1,3-benzodiazol-1-yl}piperidine-2,6-dione]	54	8			0.0163	8
CC1CCCC1N1C(=O)C2(CC2)c2cnc(NC3CCN(S(=O)(=O)C4CCN(C(=O)CCCCCCCCCc5cccc6c5n(C)c(=O)n6C5CCC(=O)NC5=O)C4)CC3)nc21 (stereo not shown) [Compound 53]	62	46	36		0.01	
CC1CCCC1N1C(=O)C2(CC2)c2cnc(NC3CCN(S(=O)(=O)N4CCC5(CCCN5C(=O)CCc5cccc6c5n(C)c(=O)n6C5CCC(=O)NC5=O)C4)CC3)nc21 (stereo not shown) [Compound 17]	54	26	26		0.017	
CC1CCCC1N1C(=O)C2(CC2)c2cnc(NC3CCN(S(=O)(=O)C4CCCN(C(=O)CCCCCc5cccc6c5n(C)c(=O)n6C5CCC(=O)NC5=O)C4)CC3)nc21 (stereo not shown) [Compound 44]	39	44	5			
CC1CCCC1N1C(=O)C2(CC2)c2cnc(NC3CCN(S(=O)(=O)N4CCCN(C(=O)CCCCCc5ccc6c(c5)n(C)c(=O)n6C5CCC(=O)NC5=O)CC4)CC3)nc21 (stereo not shown) [Compound 80]	24	29	8			
CC1CCCC1N1C(=O)C2(CC2)c2cnc(NC3CCN(S(=O)(=O)N4CC5CN(C(=O)CCCc6cccc7c6n(C)c(=O)n7C6CCC(=O)NC6=O)CC5C4)CC3)nc21 (stereo not shown) [Compound 23]	64	20	49		0.098	
CC1CCCC1N1C(=O)C2(CC2)c2cnc(NC3CCN(S(=O)(=O)N4CC5(CCCCN5C(=O)CCCCCc5cccc6c5n(C)c(=O)n6C5CCC(=O)NC5=O)C4)CC3)nc21 (stereo not shown) [Compound 37]	40	30	0			

The next lines start with results.

CDK2 HIBIT Protein Quantification Maximum [1] [%]	CCNE1 HIBIT Protein Quantification Maximum [2] [%]	Dmax ([3]; 6 h) [%]	DC50 ([3]; ABS DC50) [µM]	DC50 [1] [µM]	Structure (SMILES)	Dmax [3] [%]
92	41	21		0.00554	CC(c1cccc(S(=O)(=O)N2CC[C@H](Nc3ncc4c(n3)N([C@@H]3CCC[C@@H](O)C3)C(=O)C43CC3)[C@H](F)C2)c1)N1CCN(c2ccc3c(N4CCC(=O)NC4=O)nn(C)c3c2)C[C@H]1C (stereo partly drawn) [Compound 195, 1-(6-((3R)-4-(1-(3-(((3R,4S)-3-Fluoro-4-((7′-((1R,3R)-3-hydroxycyclohexyl)-6′-oxo-6′,7′-dihydrospiro[cyclopropane-1,5′-pyrrolo[2,3-d]pyrimidin]-2′-yl)amino)piperidin-1-yl)sulfonyl)phenyl)ethyl)-3-methylpiperazin-1-yl)-1-methyl-1H-indazol-3-yl)dihydropyrimidine-2,4(1H,3H)-dione]	
49	25	27			CC1CCCC1N1C(=O)C2(CC2)c2cnc(NC3CCN(S(=O)(=O)N4CCC5(CCN(CCCCCCCOc6cccc7c6n(C)c(=O)n7C6CCC(=O)NC6=O)C5)C4)CC3)nc21 (stereo not shown) [Compound 141, 3-(3-Methyl-4-{[7-(7-{4-[7′-(2-methylcyclopentyl)-6′-oxospiro[cyclopropane-1,5′-pyrrolo[2,3-d]pyrimidin]-2′-ylamino]piperidin-1-ylsulfonyl}-2,7-diazaspiro[4.4]nonan-2-yl)heptyl]oxy}-2-oxo-1,3-benzodiazol-1-yl)piperidine-2,6-dione]	
17	41	14			CC1CCCC1N1C(=O)C2(CC2)c2cnc(NC3CCN(S(=O)(=O)C4CCCN(C(=O)CCCCCCCc5ccc6c(c5)n(C)c(=O)n6C5CCC(=O)NC5=O)C4)CC3)nc21 (stereo not shown) [Compound 85]	
52	38	8		0.00325	CC1CCCC1N1C(=O)C2(CC2)c2cnc(NC3CCN(S(=O)(=O)N4CC5(CCCN(C6CCN(c7cccc8c7n(C)c(=O)n8C7CCC(=O)NC7=O)C6)C5)C4)CC3)nc21 (stereo not shown) [Compound 137]	
45	14	3			CC1CCCC1N1C(=O)C2(CC2)c2cnc(NC3CCN(S(=O)(=O)N4CC5(CCCN(CCOc6cccc7c6n(C)c(=O)n7C6CCC(=O)NC6=O)C5)C4)CC3)nc21 (stereo not shown) [Compound 138, 3-{3-Methyl-4-[2-(2-{4-[7′-(2-methylcyclopentyl)-6′-oxospiro[cyclopropane-1,5′-pyrrolo[2,3-d]pyrimidin]-2′-ylamino]piperidin-1-ylsulfonyl}-2,6-diazaspiro[3.5]nonan-6-yl)ethoxy]-2-oxo-1,3-benzodiazol-1-yl}piperidine-2,6-dione]	
85	45	24		0.00192	CC(c1cccc(S(=O)(=O)N2CC[C@H](Nc3ncc4c(n3)N([C@@H]3CCC[C@@H](O)C3)C(=O)C43CC3)[C@H](F)C2)c1)N1CCC(c2ccc3c(N4CCC(=O)NC4=O)nn(C)c3c2)CC1 (stereo partly shown) [Compound 188]	
13	9	25			CC1CCCC1N1C(=O)C2(CC2)c2cnc(NC3CCN(S(=O)(=O)N4CC5CN(C(=O)CCCCc6ccc7c(c6)n(C)c(=O)n7C6CCC(=O)NC6=O)CC54)CC3)nc21 (stereo not shown) [Compound 111]	
64	44	18		0.0213	Cn1nc(N2CCC(=O)NC2=O)c2ccc(C3CCN(Cc4cccc(S(=O)(=O)N5CCC(Nc6ncc7c(n6)N([C@@H]6CCC[C@@H](O)C6)C(=O)C76CC6)CC5)n4)CC3)cc21 [Compound 166, 1-[6-(1-{[6-(4-{7′-[(1R,3R)-3-Hydroxycyclohexyl]-6′-oxospiro[cyclopropane-1,5′-pyrrolo[2,3-d]pyrimidin]-2′-ylamino}piperidin-1-ylsulfonyl)pyridin-2-yl]methyl}piperidin-4-yl)-1-methylindazol-3-yl]-1,3-diazinane-2,4-dione]	
62	23	25		0.023	O=C1CCC(N2Cc3cc(N4CC5(CN(Cc6cccc(S(=O)(=O)N7CCC(Nc8ncc9c(n8)N([C@@H]8CCC[C@@H](O)C8)C(=O)C98CC8)CC7)c6)C5)C4)ccc3C2=O)C(=O)N1 (stereo partly shown) [Compound 120]	
91	43	13		0.0109	C[C@@H](c1cccc(S(=O)(=O)N2CC[C@H](Nc3ncc4c(n3)N([C@@H]3CCC[C@@H](O)C3)C(=O)C43CC3)[C@H](F)C2)c1)N1CCN(c2ccc3c(N4CCC(=O)NC4=O)nn(C)c3c2)[C@@H](C)C1 [Compound 206]	
91	43	16		0.0127	C[C@@H]1CN([C@@H](C)c2cccc(S(=O)(=O)N3CC[C@H](Nc4ncc5c(n4)N([C@@H]4CCC[C@@H](O)C4)C(=O)C54CC4)[C@H](F)C3)c2)CCN1c1ccc2c(N3CCC(=O)NC3=O)nn(C)c2c1 [Compound 209]	
22	14	28			CC1CCCC1N1C(=O)C2(CC2)c2cnc(NC3CCN(S(=O)(=O)N4CCC5(CCN(C(=O)CCCCc6ccc7c(c6)n(C)c(=O)n7C6CCC(=O)NC6=O)C5)C4)CC3)nc21 (stereo not shown) [Compound 112]	
